Laboratory results published in the NIST ThermoML archive (doi:10.1016/j.jct.2014.04.003).
± gives the expanded uncertainty stated by the source.

Experiment: molar enthalpy of vaporization or sublimation
Conditions: 298.15 K; Liquid; Static calorimetry

molar enthalpy: 12.1 ± 0.311 kcal/mol
Compound: Cc1ccc(C)n1C [1,2,5-trimethylpyrrole]
